Assay results from patent publication US9301951B2 (Ardelyx, Inc., priority 2010, dated 2016).

Columns and labels:
[1] = human absorption; cited from earlier work
[2] = Determination of compound Cmax and AUC in plasma after oral gavage; format: in vivo, rat; conditions: Sprague-Dawley rats, actual oral dose 3-15 mg/kg, 0.5-4 h
Method: Sprague-Dawley rats were orally gavaged with test article at a nominal dose of 2.5 or 10 mg/kg and blood was collected at 0.5, 1, 2 and 4 h. Blood samples were processed to plasma using K2EDTA as an anticoaglulant. Plasma samples were treated with acetonitrile containing an internal standard, precipitated proteins removed by centrifugation. Supernatants were analyzed by LC-MS/MS and compound concentrations were determined by interpolation from a standard curve prepared in plasma. All compounds were orally dosed at the dosage shown, and pharmacokinetic parameters determined.

Cc1cc(=O)n(-c2ccccc2)n1C [phenazone]
% FA [1]: 97%

(S)-2-(5-(diethylamino)-2-(3-(27-oxo-2,5,8,11,14,17,20,23,30,33,36,39-dodecaoxa-42-thia-26-azatritetracontan-43-yl)benzamido)phenyl)-N-(1,2,3,4-tetrahydronaphthalen-1-yl)isonicotinamide [Example 157.1]
AUC [2]: <0.03 µg·h/mL | Cmax [2]: <0.01 µg/mL
